In US11351125B2, “Poly(n-butyl cyanoacrylate) nanoparticle with dual modifications, preparation method and use thereof” (Xuanwu Hospital of Capital Medical University, priority 2016, dated 2022):

Legend:
[1] = Pharmacokinetics of docetaxel after intravenous administration in rats; format: in vivo, Wistar rats; settings: rat, HPLC
Procedure: 6- to 8-week old male Wistar rats were subjected to jugular vein catheterization. […] The rats were administered with a docetaxel solution (a free drug) and docetaxel-loaded PBCA nanoparticles with dual modifications by PEG20000-cholesterol, respectively. […] After treatment, the content of docetaxel in the blood was determined by HPLC.

[2] = Brain tissue distribution of docetaxel in rats; format: in vivo, Wistar rats; settings: rat, tail vein injection, HPLC
Procedure: The rats were subjected to tail vein injection with a docetaxel solution (a free drug), and docetaxel-loaded PBCA nanoparticles with dual modifications by PEG20000-cholesterol, respectively. The rats were killed at different time points after administration, respectively, and the brain tissues were taken, washed with physiological saline and weighed. After treatment, the content of docetaxel in the brain tissue was determined by HPLC.

[3] = test system: 4T1 cells (mouse breast cancer cells); assay: Inhibition of tumor cell proliferation in vitro, MTT; format: cell-based; settings: 0.0001 nmol/ml (as docetaxel), 24 h
Procedure: (2) Method: MTT method was used to determine the proliferation state of tumor cells. The particular steps were as followed: 4T1 cells (mouse breast cancer cells) in the logarithmic growth phase were digested and counted, and then seeded to a 96-well plate at a density of 5×10^4/well. […] After further incubation for 24 h and 48 h, respectively, the old medium was pipetted off, and a medium containing 0.5 mg/ml MTT was added to each well. After further incubation for 4 h, the medium was pipetted off, and washing with PBS was performed twice. DMSO (200 μl) was added to dissolve the formazan crystal, and shaking was performed in dark for 10 min; and then the OD value of each well at 490 nm was determined by ELISA instrument. The OD value of the cells incubated without the addition of drug was used as control (100%), and the cell viability for each drug groups were calculated, so as to study the proliferation state of tumor cells, wherein 5 parallel wells were set for each group.

[4] = rat
Procedure: (2) Method: 6- to 8-week old male Wistar rats were randomly divided into 3 groups, with 6 rats for each group. The rats were anesthetized by intraperitoneal injection of a pentobarbital solution (40 mg/kg), and jugular vein catheterization was performed. […] After treatment, the content of coumarin-6 in the blood was determined.

[5] = Brain tissue distribution of coumarin-6 in rats, Experiment 1 (time course); format: in vivo, Wistar rats; settings: rat, tail vein injection
Procedure: (1) Method: 6- to 8-week old male Wistar rats were randomly divided into 3 groups, with 21 rats for each group. The rats were subjected to tail vein injection with an equimolar amount of a coumarin-6 solution (a free drug), coumarin-6-loaded nanoparticles with single modification by cholesterol and PBCA nanoparticles with dual modifications by PEG20000-cholesterol as prepared in Example 1, respectively. The rats were killed at different time points (15 min, 30 min, 1 h, 2 h, 4 h, 8 h, 12 h) after administration, brain tissues were taken, and the content of coumarin-6 in brain was determined.

Row | sustained release in vivo (docetaxel detectable in blood) [1] [h] | docetaxel in the brain after intravenous administration [2] | release time in vivo (coumarin-6 detectable in blood) [4] [h] | AUC0-t ([4]; in vivo, iv) [µg·min/mL] | AUC0-∞ ([4]; in vivo, iv) [µg·min/mL] | C0 ([4]; in vivo, iv) [ng/mL] | CL ([4]; in vivo, iv) [mL/min] | Vd, λz ([4]; in vivo, iv) [L] | t1/2, λz ([4]; in vivo, iv) [h] | content of coumarin-6 in the brain tissue ([5]; 15 min-12 h) [ng/g brain tissue] | coumarin-6 in the brain tissue 8 h after administration ([5]; 8 h) | Compound | cell viability of the tumor cells [3]
1 | < 2 | could not be detected in the brain |  |  |  |  |  |  |  |  |  | CC(=O)O[C@@]12CO[C@@H]1C[C@H](O)[C@@]1(C)C(=O)[C@H](O)C3=C(C)[C@@H](OC(=O)[C@H](O)[C@@H](NC(=O)OC(C)(C)C)c4ccccc4)C[C@@](O)([C@@H](OC(=O)c4ccccc4)[C@H]21)C3(C)C [docetaxel] | no significant change
2 |  |  | ≤ 4 | 15.8 ± 2.4 | 16.0 ± 2.3 | 828.4 ± 139.0 | 6.4 ± 0.9 | 0.6 ± 0.3 | 1 ± 0.4 | ≤ 50 | no coumarin-6 was detected | coumarin-6 [Free drug] | 
